Common to all, as to type: cell-based
One assay has as its system HL-60. The experiment in a line: Cell viability assay, HL-60. As for the experimental part: (§1) Antitumor activity of the compounds and doxorubicin as a positive control was assessed by using the CellTiter-Blue Cell Viability Assay (Promega, #G8082) or CellTiter-Glow® Luminescent Cell Viability assay (Promega #G7572) according to the manufacturer's instructions. The compounds were tested at 5 or 6 concentrations in half-log increments (highest concentration 30 μM or 100 μM) in duplicate or triplicate well conditions.
Tumor cells were grown at 37° C. in a humidified atmosphere with 5% CO2 in RPMI 1640 or DMEM medium, supplemented with 10% (v/v) fetal calf serum and 50 μg/ml gentamicin for up to 20 passages, and were passaged once or twice weekly. Cells were harvested using TrypLE or PBS buffer containing 1 mM EDTA, and the percentage of viable cells was determined using a CASY Model TI cell counter (OMNI Life Science). Cells were harvested from exponential phase cultures, counted and plated in 96 well flat-bottom microtiter plates at a cell density depending on the cell line's growth rate (4,000-20,000 cells/well depending on the cell line's growth rate, up to 60,000 for hematological cancer cell lines) in RPMI 1640 or DMEM medium supplemented with 10% (v/v) fetal calf serum and 50 μg/ml gentamicin (140 μl/well). Cultures were incubated at 37° C. and 5% CO2 in a humidified atmosphere. After 24 h, 10 μl of test compounds or control medium were added and left on the cells for another 72 h. Compounds were serially diluted in DMSO, transferred in cell culture medium, and added to the assay plates. The DMSO concentration was kept constant at <0.3% v/v across the assay plate. Viability of cells was quantified by the CellTiter-Blue® cell viability assay (Promega G8081) or CellTiter-Glow® Luminescent Cell Viability assay (Promega #G7572). Fluorescence (FU) was measured by using the EnSpire® multimode plate reader (Perkin Elmer) (excitation λ=570 nm, emission λ=600 nm) Luminescence was measured with a microplate luminometer (Promega or PerkinElmer). […]

A further assay deals with CO-04-0722. The experiment in a line: Cell viability, colon PDX CO-04-0722. As for the experimental part: (§2) PDX-derived cell cultures were obtained from tumors explanted from mice and isolated by mechanical and enzymatic dissociation. […] Cells were harvested and seeded in 96-wells plates at a density of 1.25 to 5×10^3 cells/well for cytotoxicity assays. Cells were incubated 48 h at 37° C. prior to addition of test molecules and vehicle (DMSO, 0.1%) at desired final concentrations. Cell viability was assessed before drugs' addition (To) and 5 days after test molecules addition by measuring ATP cell content using CellTiter-Glo® Luminescent Cell Viability Assay (Promega) according to the manufacturer's instructions. Luciferase activity was measured on a luminometer (PerkinElmer® EnVision™). Each concentration of compounds was tested in triplicate.
(§3) Viability was calculated as a percentage of ATP value compared to vehicle treated controls.
(§4) For PDX primary cell cultures, the tumour tissue was washed with PBS containing antibiotic-antimycotic and non-tumour tissue and necrotic tumour tissues were separated. The tumour tissue was transferred to a new dish and cut into 1˜2 mm^3 fragments, resuspended in RPMI-1640 medium and centrifuged at 1,200 rpm for 6 min at room temperature. The pelleted material was resuspended with 15 mL of Tumour Cell Digestion Solution and incubated at 37° C. for 1 hour with agitation. […]

Another assay has as its system ES-06-0002. The experiment in a line: Cell viability, esophagus PDX ES-06-0002. On the procedure:
as §2, §3, §4

In a further assay the test system is LY-24-0340. Kind of assay: Cell viability, lymphoma PDX LY-24-0340. As for the experimental part:
as §2, §3
For PDX primary cell cultures, the tumour tissue was washed with PBS containing antibiotic-antimycotic and non-tumour tissue and necrotic tumour tissues were separated. The tumour tissue was transferred to a new dish and cut into 1˜2 mm^3 fragments, resuspended in RPMI-1640 medium and centrifuged at 1,200 rpm for 6 min at room temperature. The pelleted material was resuspended with 15 mL of Tumour Cell Digestion Solution and incubated at 37° C. for 1 hour with agitation. Following further addition of media, centrifugation and passage through a 70 μm cell strainer, the homogenous cell mixture was layered onto 15 mL of Ficoll-Paque PLUS in a 50 mL conical tube and centrifuged for 15 min at 1,600 rpm. The interface cells were collected, washed with media, separated by centrifugation at 1,200 rpm. The cell pellet was resuspended in serum free media supplemented with growth factors. 10,000 cells/wells were plated in a 96 well plate and incubated at 37° C., 5% CO2, 95% air and 100% relative humidity overnight. The cytotoxicity assay was conducted as above.
Sigmoidal concentration-response curves were fitted to the data points (test-versus-control, T/C values) obtained for each tumor model using GraphPad prism 5.02 software.

In the next assay the test system is CH-17-0098. The experiment in a line: Cell viability, bile duct PDX CH-17-0098. On the procedure:
as §2, §3, §4

A further assay deals with MDA-MB-468. Kind of assay: Cell viability assay, MDA-MB-468. The conditions noted are these: breast carcinoma cell line MDA-MB-468. As for the experimental part:
as §1
(§5) Tumor cells were grown at 37° C. in a humidified atmosphere with 5% CO2 in RPMI 1640 or DMEM medium, supplemented with 10% (v/v) fetal calf serum and 50 μg/ml gentamicin for up to 20 passages, and were passaged once or twice weekly. Cells were harvested using TrypLE or PBS buffer containing 1 mM EDTA, and the percentage of viable cells was determined using a CASY Model TI cell counter (OMNI Life Science). Cells were harvested from exponential phase cultures, counted and plated in 96 well flat-bottom microtiter plates at a cell density depending on the cell line's growth rate (4,000-20,000 cells/well depending on the cell line's growth rate, up to 60,000 for hematological cancer cell lines) in RPMI 1640 or DMEM medium supplemented with 10% (v/v) fetal calf serum and 50 μg/ml gentamicin (140 μl/well). […] Viability of cells was quantified by the CellTiter-Blue® cell viability assay (Promega G8081) or CellTiter-Glow® Luminescent Cell Viability assay (Promega #G7572). […]

Another assay relates to MCF-7. Kind of assay: Cell viability assay, MCF-7. The conditions noted are these: breast carcinoma cell line MCF-7. As for the experimental part:
as §1, §5

In another assay the test system is ES-06-0122. Kind of assay: Cell viability, esophagus PDX ES-06-0122. On the procedure: as §2, §3, §4
In the next assay the test system is LU-01-0025. The experiment in a line: Cell viability, lung PDX LU-01-0025. As for the experimental part:
as §2, §3, §4

The subject of a further assay is PC-3. The experiment in a line: Cell viability assay, PC-3. The conditions noted are these: prostate carcinoma cell line PC-3. On the procedure: as §1, §5
The subject of another assay is ST-020012. Kind of assay: Cell viability, stomach PDX ST-020012. On the procedure: as §2, §3, §4
The test system of a further assay is ST-02-0007. The experiment in a line: Cell viability, stomach PDX ST-02-0007. On the procedure:
as §2, §3, §4

The subject of another assay is LU-01-0004. Kind of assay: Cell viability, lung PDX LU-01-0004. On the procedure: as §2, §3, §4
For another assay, the system named is LoVo. The experiment in a line: Cell viability assay, LoVo. As to conditions: colon carcinoma cell line LoVo. As for the experimental part:
as §1, §5

The subject of a further assay is LU-01-0027. The experiment in a line: Cell viability, lung PDX LU-01-0027. On the procedure: as §2, §3, §4
The test system of the next assay is ST-02-0173. The experiment in a line: Cell viability, stomach PDX ST-02-0173. On the procedure:
as §2, §3, §4

The test system of the next assay is PC-07-0045. The experiment in a line: Cell viability, pancreatic PDX PC-07-0045. As for the experimental part:
as §2, §3, §4

Another assay deals with BR-05-0014E. The experiment in a line: Cell viability, breast PDX BR-05-0014E. As for the experimental part: as §2, §3, §4
The subject of the next assay is LU-01-0604. The experiment in a line: Cell viability, lung PDX LU-01-0604. On the procedure: as §2, §3, §4
A further assay has as its system ONCap. The experiment in a line: Cell viability assay, ONCap. The conditions noted are these: prostate carcinoma cell line ONCap. On the procedure: as §1, §5
Setting [1] is: lymphoma PDX LY-24-0340, read-out: IC50.

Consider two molecules from US20240124503A1, “HETEROAROMATIC PHOSPHONIUM SALTS AND THEIR USE TREATING CANCER” (FLORATEK PHARMA S.A., priority 2021, published 2024).

Like-named read-outs stand apart in the source and are kept apart here.

Usually IC50 stands for the concentration at which inhibition is half-maximal. For `COc1c(O)ccc2c(=O)c(O)c(-c3ccc(CCCC[P+](c4ccccc4)(c4ccccc4)c4ccccc4)cc3)oc12` [SND190, (4-(4-(3,7-Dihydroxy-8-methoxy-4-oxo-4H1-chromen-2-yl)phenyl)butyl)triphenylphosphonium bromide], the IC50 with HL-60 (Homo sapiens, HL-60, summary of Table 12, read-out: IC50, leukaemia cell growth) is under 1 µM; in the assay with HL-60 (Homo sapiens, leukaemia cell line HL-60, read-out: IC50), 0.3 µM; with CO-04-0722, 4.4 µM; with ES-06-0002 it was 4.9 µM; with LY-24-0340 (Table 16, read-out: IC50, lymphoma PDX growth) it was under 5 µM; in the assay with LY-24-0340 (setting [1]), 3.8 µM. Also, the IC50 in the assay on CH-17-0098 came out at 4 µM; in the assay with MDA-MB-468 (Homo sapiens) it was 0.3 µM; in the assay on MCF-7 (Homo sapiens, MCF7), 3.91 µM; in the assay with ES-06-0122 it was 6.5 µM; in the assay with LU-01-0025 it was 0.6 µM; in the assay on PC-3 (Homo sapiens), 1.69 µM. In addition, the IC50 worked out at 4.5 µM in the assay on ST-020012; 5.7 µM in the assay on ST-02-0007; 5.4 µM in the assay on LU-01-0004; 2.49 µM with LoVo (Homo sapiens); 4 µM with LU-01-0027; 11 µM in the assay on ST-02-0173. The IC50 in the assay with PC-07-0045 turned out to be 3.4 µM; in the assay with BR-05-0014E it was 6.6 µM; with LU-01-0604, 2 µM; in the assay on ONCap, 1.5 µM.
Consider `O=c1cc(-c2ccc(CCC[P+](c3ccccc3)(c3ccccc3)c3ccccc3)cc2)oc2c(O)c(O)ccc12` [SND200, (3-(4-(7,8-Dihydroxy-4-oxo-4H1-chromen-2-yl)phenyl)propyl)triphenylphosphonium bromide], for which the IC50 turned out to be 0.3 µM in the assay on HL-60 (leukaemia cell line HL-60, read-out: IC50); 9.8 µM with CO-04-0722; 11.6 µM in the assay on ES-06-0002; 4 µM with LY-24-0340 (setting [1]); 7.5 µM in the assay on CH-17-0098; 0.3 µM in the assay with MDA-MB-468. In addition, the IC50 with MCF-7 came to 1.68 µM; in the assay on ES-06-0122 it was 8.8 µM; in the assay on LU-01-0025, 4.9 µM; in the assay on PC-3, 0.3 µM; with ST-020012, 8.8 µM; in the assay on ST-02-0007, 9.4 µM. Besides, the IC50 in the assay on LU-01-0004 was 9.8 µM; in the assay on LoVo it was 0.64 µM; in the assay on LU-01-0027, 1.8 µM; in the assay on ST-02-0173, 15.5 µM; in the assay on PC-07-0045 it was 2.3 µM; in the assay with BR-05-0014E it was 19 µM. Also, the IC50 is 7.8 µM in the assay on LU-01-0604 and 0.52 µM with ONCap.
